Measurements taken from patent publication US9446006B2, “Hydroxytyrosol combinations for enhancing mitochondrial function and energy production” (DSM IP ASSETS B.V., priority 2009, dated 2016).
“Also recorded” adds a separate entry of the source.

Experiments:
C2C12 mouse myoblasts = experiment: Mitochondrial membrane potential by relative JC-1 fluorescence; format: cell-based; details: C2C12 cells, 24 h; for Increase in mitochondrial membrane potential: vs. control
Source text: The objective of the experiment was to investigate whether and how mitochondrial energy production in myoblasts is affected by hydroxytyrosol alone or in combination with other compounds. For energy production, the mitochondrial electron transport chain generates a proton gradient across the […], creating a membrane potential that powers the synthesis of ATP by the ATP synthase complex. […] If a critical concentration is reached, JC-1 forms aggregates, which changes its fluorescence properties from green to red fluorescence. […] An increased mitochondrial membrane potential indicates an improved energetic state and increased capability to generate ATP and provide energy for other cellular components. […] C2C12 cells were seeded into a 96-well cell culture plate at 1000 cells/well and cultured in growth medium (Dulbecco's modified eagle medium (DMEM) supplemented with 10% fetal bovine serum) in a standard incubator (humidified, 37° C., 5% CO2) for 24 h. […] […] After 24 h of treatment, cells were incubated with medium containing JC-1 (2 ug/ml) for 30 min at 37° C., then the staining solution was removed, DMEM without phenol red was added, and green fluorescence (ex 485 nm/em 538 nm) and red fluorescence (ex 544 nm/em 590 nm) was measured using a fluorescence plate reader (SpectraMax M5). The ratio of red to green fluorescence in each well was determined and the average and standard deviation of the quadruplicate treatments were calculated.

[1] = tested on: mitochondrial electron transport complex I; experiment: Mitochondrial complex I protein expression in adipocytes (Western blot); format: cell-based, murine; details: 3T3-L1 adipocytes, 48 hrs, vs. control
Procedure: (§1) Murine 3T3-L1 pre-adipocytes (American Type Culture Collection) were cultured in Dulbecco's Modified Eagle's Medium (DMEM) supplemented with 10% fetal bovine serum and allowed to reach confluence. Differentiation of pre-adipocytes was initiated with 1 μM insulin, 0.25 μM dexamethasone and 0.5 mM 3-isobutyl-1-methylxanthine in DMEM, supplemented with 10% fetal bovine serum. After 48 h, the culture medium was replaced with DMEM supplemented with 10% fetal bovine serum and 1 μM insulin. The culture medium was changed every other day with DMEM containing 10% fetal bovine serum. […] After treatment, cells were washed twice with ice-cold PBS, lysed in sample buffer (62.5 mM Tris-Cl pH 6.8, 2% SDS, 5 mM DTT) at room temperature and vortexed. Cell lysates were then boiled for 5 minutes and cleared by centrifugation (13,000 rpm, 10 minutes at 4° C.). Protein concentration was determined using the Bio-Rad DC protein assay. The soluble lysates (10 μg per lane) were subjected to 10% SDS-PAGE, proteins were then transferred to nitrocellulose membranes and blocked with 5% non-fat milk/TBST for 1 h at room temperature. Membranes were incubated with primary antibodies directed against PPAR-γ (1:1000), PGC-1α (1:1000), α-tubulin (1:10 000), Complex I (1:2000), Complex II (1:2000), Complex III (1:2000) and Complex V (1:2000) in 5% milk/TBST at 4° C. overnight. After washing membranes with TBST three times, membranes were incubated with horseradish peroxidase-conjugated secondary antibody for 1 h at room temperature. Western blots were developed using ECL (Roche Manheim, Germany) and quantified by scanning densitometry.

PGC-1α = PGC-1α protein level in adipocytes (Western blot, densitometry); format: cell-based, murine; details: 3T3-L1 adipocytes; hydroxytyrosol 1.0 μM; vs. control
Procedure: as §1, with “Membranes were incubated with primary antibodies directed against PPAR-γ (1:1000), PGC-1α (1:1000), α-tubulin (1:10 000), Complex I (1:2000), Complex II (1:2000), Complex III (1:2000) and Complex V (1:2000) in 5% milk/TBST at 4° C. overnight. After washing membranes with TBST three times, membranes were incubated with horseradish peroxidase-conjugated secondary antibody for 1 h at room temperature.” left out

**Q.** For `Cn1c(=O)c2c(ncn2C)n(C)c1=O` [Caffeine, caffeine], which “Effect on mitochondrial membrane potential (red/green JC-1 fluorescence ratio)” value (“Effect … (red/green JC-1 fluorescence ratio)” for short) (C2C12 mouse myoblasts; 200 uM alone) is on record?
**A.** Its value is “no significant effect”.

**Q.** And the “Increase in mitochondrial membrane potential” value (from here on “Increase”) (C2C12 mouse myoblasts; 200 μM alone)?
**A.** Its value is −4%.

**Q.** For `OCCc1ccc(O)c(O)c1` [Hydroxytyrosol, 3,4-dihydroxyphenylethanol], which “Effect … (red/green JC-1 fluorescence ratio)” value (C2C12 mouse myoblasts; 1 uM) is on record?
**A.** Its value is “no significant effect”.

**Q.** What about the “Increase” value (C2C12 mouse myoblasts; 1 μM) of the same molecule?
**A.** Its value is 1%.

**Q.** And the “Increase” value (C2C12 mouse myoblasts; 10 μM)?
**A.** Its value is 11%.

**Q.** And the “Mitochondrial electron transport complex I protein” value ([1]; 0.1 μM)?
**A.** Its value is 131±16%.

**Q.** And the “Mitochondrial electron transport complex I protein” value ([1]; 1.0 μM)?
**A.** The value was 163±31%.

**Q.** What about the “Mitochondrial electron transport complex I protein” value ([1]; 10.0 μM) of the same molecule?
**A.** Its value is 138±21%.

**Q.** What about the “PGC-1α protein expression (PGC-1α:α-tubulin ratio), maximum” value (PGC-1α) of the same molecule?
**A.** The value was 205±52%.

**Q.** `C[N+](C)(C)C[C@H](O)CC(=O)[O-]` [L-carnithine] was tested. Which “Effect … (red/green JC-1 fluorescence ratio)” value (C2C12 mouse myoblasts; 200 uM alone) did it give?
**A.** Its value is “no significant effect”.

**Q.** And the “Increase” value (C2C12 mouse myoblasts; 200 μM alone)?
**A.** The value was 0%.

**Q.** Which “Effect … (red/green JC-1 fluorescence ratio)” value (C2C12 mouse myoblasts; 500 uM) does the source give for `NC(=O)c1ncn([C@@H]2O[C@H](CO)[C@@H](O)[C@H]2O)c1N` [AICAR, aminoimidazole carboxamide ribonucleotide] here?
**A.** The value was “increase in mitochondrial potential; also recorded: increase mitochondrial membrane potential”.

**Q.** And the “Increase” value (C2C12 mouse myoblasts; 500 μM)?
**A.** Its value is 16%.
